Molecular target: T1, recombinant autotaxin (Homo sapiens, UniProt Q13822)
T1 construct: made in house; host or cells: Hi5 insect cells (baculovirus)
Test: Autotaxin test (enzyme test), Amplex Red
Format: biochemical
Conditions: Autotaxin inhibition (enzyme test), TABLE 1 (A compounds); substrate LPC 75 μM
Method: The autotaxin activity is measured indirectly using Amplex Red reagent. Amplex Red is measured here as fluorogenic indicator for the H2O2 formed. In detail, autotaxin converts the substrate lysophosphatidylcholine (LPC) into phosphocholine and lysophosphatidylic acid (LPA). After this reaction, the phosphocholine is reacted with alkaline phosphatase to give inorganic phosphate and choline. In the next step, choline is oxidised by choline oxidase to give betaine, with formation of H2O2. H2O2 reacts with Amplex Red reagent in the presence of peroxidase (horseradish peroxidase) in a 1:1 stoichiometry and forms the highly fluorescent resorufin. The fluorescence is measured in a reaction-dependent kinetic mode in order that fluorescent signals from possible other fluorescent substances which are not involved in the reaction can be corrected out.
1.5 μl of a standard solution or of the test substances (substances with the name A(n))in individual concentrations dissolved in 20 mM Hepes pH 7.2 with a maximum of 7.7% of DMSO are pre-incubated together with 10 μl (16 ng) of highly purified recombinant autotaxin in a black microtitre plate provided with 384 wells at 22° C. for 30 min. The reaction is then initiated by addition of 5 μl of L-α-lysophosphatidylcholine (LPC), where the final concentration of LPC is 75 μM. The mixture is incubated at 37° C. for 90 min. After the incubation, Amplex Red reagent, peroxidase (horseradish peroxidase) and choline oxidase is added, and the fluorescence is immediately measured at 612 nm with excitation of 485 nm in a “Tecan Ultra multimode” reader. The activity of autotaxin is calculated indirectly via detection of the H2O2 formed.
• Microtitre plate: PS microplate, 384 wells, small volume, black Corning, Cat#3677 • Protein: recombinant autotaxin (Baculovirale Hi5 Expression) • Substrate: L-α-lysophosphatidylcholine (chicken egg)); Avanti Polar Lipids # 830071 P • Standard: C14 LPA, Avanti Polar Lipids, Cat# 857120P • Detection reagent: Amplex Red reagent; Invitrogen # A12222; dissolved in 1.923 ml of DMSO peroxidase type VI-A (horseradish) from Sigma # P6782; dissolved in 7.45 ml of test buffer, choline oxidase; Sigma # C5896; dissolved in 2.47 ml of test buffer • Detection reagent mix: 1:100 dilution of Amplex Red reagent in test buffer • Test buffer: 200 mM Tris HCl, Merck, Cat # 1.08219, pH 7.9, 0.1% of BSA, lipid-free, Roche Cat#775835

| Compound | IC50 [nM] |
| --- | --- |
| CCOc1ncc(Cl)cc1NC(=O)CN1CCc2nc3ccccc3c(C(=O)N3CCOCC3)c2C1 [Compound A52, N-(5-Chloro-2-ethoxypyridin-3-yl)-2-[10-(morpholine-4-carbonyl)-3,4-dihydro-1H-benzo[b][1,6]naphthyridin-2-yl]acetamide] | > 1000 |
| O=C(CN1CCc2nc3ccccc3c(C(=O)N3CCOCC3)c2C1)Nc1ccc(Cl)cc1O [Compound A53, N-(4-Chloro-2-hydroxyphenyl)-2-[10-(morpholine-4-carbonyl)-3,4-dihydro-1H-benzo[b][1,6]naphthyridin-2-yl]acetamide] | 100 to 1000 |
| O=C(CN1CCc2nc3ccccc3c(C(=O)N3CCOCC3)c2C1)Nc1cc(Cl)ccc1OCCO [Compound A54, N-[5-Chloro-2-(2-hydroxyethoxy)phenyl]-2-[10-(morpholine-4-carbonyl)-3,4-dihydro-1H-benzo[b][1,6]naphthyridin-2-yl]acetamide] | 100 to 1000 |
| CC(C)Oc1ccc(Cl)cc1NC(=O)CN1CCc2nc3ccccc3c(C(=O)N3CCN(CCO)CC3)c2C1 [Compound A60, N-(5-Chloro-2-isopropoxyphenyl)-2-{10-[4-(2-hydroxyethyl)piperazine-1-carbonyl]-3,4-dihydro-1H-benzo[b][1,6]naphthyridin-2-yl}acetamide] | > 1000 |
| O=C(CN1CCc2nc3ccccc3c(C(=O)N3CCN(CCO)CC3)c2C1)Nc1cc(Cl)ccc1OCCO [Compound A61, N-[5-Chloro-2-(2-hydroxyethoxy)phenyl]-2-{10-[4-(2-hydroxyethyl)-piperazine-1-carbonyl]-3,4-dihydro-1H-benzo[b][1,6]naphthyridin-2-yl}-acetamide] | 100 to 1000 |
| O=C(CN1CCc2nc3ccccc3c(C(=O)N3CCN(CCO)CC3)c2C1)Nc1ccc(N2CCCC2=O)c(Cl)c1 [Compound A64, N-[3-Chloro-4-(2-oxopyrrolidin-1-yl)phenyl]-2-{10-[4-(2-hydroxyethyl)-piperazine-1-carbonyl]-3,4-dihydro-1H-benzo[b][1,6]naphthyridin-2-yl}-acetamide] | > 1000 |
| O=C(CN1CCc2nc3ccccc3c(C(=O)N3CCN(CCO)CC3)c2C1)Nc1ccc(N2CCOCC2=O)c(Cl)c1 [Compound A65, N-[3-Chloro-4-(3-oxomorpholin-4-yl)phenyl]-2-{10-[4-(2-hydroxyethyl)-piperazine-1-carbonyl]-3,4-dihydro-1H-benzo[b][1,6]naphthyridin-2-yl}-acetamide] | > 1000 |
| COc1ccc(Cl)cc1NC(=O)CN1CCc2nc3ccccc3c(C(=O)N3CCN(CCN4CCCCC4)CC3)c2C1 [Compound A66, N-(5-Chloro-2-methoxyphenyl)-2-{10-[4-(2-piperidin-1-ylethyl)piperazine-1-carbonyl]-3,4-dihydro-1H-benzo[b][1,6]naphthyridin-2-yl}acetamide] | < 100 |
| COc1ccc(Cl)cc1NC(=O)CN1CCc2nc3ccccc3c(C(=O)N3CCN(CCN(C)C)CC3)c2C1 [Compound A67, N-(5-Chloro-2-methoxyphenyl)-2-{10-[4-(2-dimethylaminoethyl)piperazine-1-carbonyl]-3,4-dihydro-1H-benzo[b][1,6]naphthyridin-2-yl}acetamide] | < 100 |
| COc1ccc(Cl)cc1NC(=O)CN1CCc2nc3ccccc3c(C(=O)N3CCN(CCN4CCOCC4)CC3)c2C1 [Compound A68, N-(5-Chloro-2-methoxyphenyl)-2-{10-[4-(2-morpholin-4-ylethyl)piperazine-1-carbonyl]-3,4-dihydro-1H-benzo[b][1,6]naphthyridin-2-yl}acetamide] | < 100 |
| COc1ccc(Br)cc1NC(=O)CN1CCc2nc3ccccc3c(C(=O)N3CCN(CCO)CC3)c2C1 [Compound A69, N-(5-Bromo-2-methoxyphenyl)-2-{10-[4-(2-hydroxyethyl)piperazine-1-carbonyl]-3,4-dihydro-1H-benzo[b][1,6]naphthyridin-2-yl}acetamide] | < 100 |
| Cc1ccc(NC(=O)CN2CCc3nc4ccccc4c(C(=O)N4CCN(CCO)CC4)c3C2)cc1Cl [Compound A73, N-(3-Chloro-4-methylphenyl)-2-{10-[4-(2-hydroxyethyl)piperazine-1-carbonyl]-3,4-dihydro-1H-benzo[b][1,6]naphthyridin-2-yl}acetamide] | > 1000 |
| O=C(CN1CCc2nc3ccccc3c(C(=O)N3CCN(CCO)CC3)c2C1)Nc1ccc(F)c(Cl)c1 [Compound A74, N-(3-Chloro-4-fluorophenyl)-2-{10-[4-(2-hydroxyethyl)piperazine-1-carbonyl]-3,4-dihydro-1H-benzo[b][1,6]naphthyridin-2-yl}acetamide] | > 1000 |
| O=C(CN1CCc2nc3ccccc3c(C(=O)N3CCN(CCO)CC3)c2C1)Nc1cc(Cl)ccc1Cl [Compound A75, N-(2,5-Dichlorophenyl)-2-{10-[4-(2-hydroxyethyl)piperazine-1-carbonyl]-3,4-dihydro-1H-benzo[b][1,6]naphthyridin-2-yl}acetamide] | 100 to 1000 |
| O=C(CN1CCc2nc3ccccc3c(C(=O)N3CCN(CCO)CC3)c2C1)Nc1ccc(Cl)c(Cl)c1 [Compound A76, N-(3,4-Dichlorophenyl)-2-{10-[4-(2-hydroxyethyl)piperazine-1-carbonyl]-3,4-dihydro-1H-benzo[b][1,6]naphthyridin-2-yl}acetamide] | > 1000 |
| O=C(CN1CCc2nc3ccccc3c(C(=O)N3CCN(CCO)CC3)c2C1)Nc1cc(Cl)ccc1F [Compound A78, N-(5-Chloro-2-fluorophenyl)-2-{10-[4-(2-hydroxyethyl)piperazine-1-carbonyl]-3,4-dihydro-1H-benzo[b][1,6]naphthyridin-2-yl}acetamide] | 100 to 1000 |
| O=C(CN1CCc2nc3ccccc3c(C(=O)N3CCN(CCO)CC3)c2C1)Nc1cc(Cl)cc2ncoc12 [Compound A79, N-(5-Chlorobenzooxazol-7-yl)-2-{10-[4-(2-hydroxyethyl)piperazine-1-carbonyl]-3,4-dihydro-1H-benzo[b][1,6]naphthyridin-2-yl}acetamide] | > 1000 |
| COc1c(Cl)cc(Cl)cc1NC(=O)CN1CCc2nc3ccccc3c(C(=O)N3CCN(CCO)CC3)c2C1 [Compound A80, N-(3,5-Dichloro-2-methoxyphenyl)-2-{10-[4-(2-hydroxyethyl)piperazine-1-carbonyl]-3,4-dihydro-1H-benzo[b][1,6]naphthyridin-2-yl}acetamide] | 100 to 1000 |
| COc1ccc(Cl)cc1N(C)C(=O)CN1CCc2nc3ccccc3c(C(=O)N3CCOCC3)c2C1 [Compound A87, N-(5-Chloro-2-methoxyphenyl)-N-methyl-2-[10-(morpholine-4-carbonyl)-3,4-dihydro-1H-benzo[b][1,6]naphthyridin-2-yl]acetamide] | 100 to 1000 |

Same assay, conditions: Autotaxin inhibition (enzyme test), TABLE 2 (B compounds); substrate LPC 75 μM

| Compound | IC50 [nM] |
| --- | --- |
| CNC(=O)C(NC(=O)CN1CCc2nc3ccccc3c(C(=O)N3CCN(CCO)CC3)c2C1)c1ccc(Cl)cc1 (stereo not drawn) [Compound B2, 2-(4-Chlorophenyl)-2-(2-{10-[4-(2-hydroxyethyl)piperazine-1-carbonyl]-3,4-dihydro-1H-benzo[b][1,6]naphthyridin-2-yl}acetylamino)-N-methylacetamide] | > 1000 |
| O=C(CN1CCc2nc3ccccc3c(C(=O)N3CCN(CCO)CC3)c2C1)Nc1cc(Cl)ccc1OC(F)(F)F [Compound B4, N-(5-Chloro-2-trifluoromethoxyphenyl)-2-{10-[4-(2-hydroxyethyl)piperazine-1-carbonyl]-3,4-dihydro-1H-benzo[b][1,6]naphthyridin-2-yl}acetamide] | > 1000 |
| O=C(CN1CCc2nc3ccccc3c(C(=O)N3CCOCC3)c2C1)Nc1cc(Cl)ccc1OC(F)(F)F [Compound B5, N-(5-Chloro-2-trifluoromethoxyphenyl)-2-[10-(morpholine-4-carbonyl)-3,4-dihydro-1H-benzo[b][1,6]naphthyridin-2-yl]acetamide] | > 1000 |
| COc1ccc(Cl)cc1NCCN1CCc2nc3ccccc3c(C(=O)N3CCN(CCO)CC3)c2C1 [Compound B14, {2-[2-(5-Chloro-2-methoxyphenylamino)ethyl]-1,2,3,4-tetrahydrobenzo-[b][1,6]naphthyridin-10-yl}-[4-(2-hydroxyethyl)piperazin-1-yl]methanone] | > 1000 |
| CSc1ccc(Cl)cc1NC(=O)CN1CCc2nc3ccccc3c(C(=O)N3CCN(CCO)CC3)c2C1 [Compound B17, N-(5-Chloro-2-methylsulfanylphenyl)-2-{10-[4-(2-hydroxyethyl)piperazine-1-carbonyl]-3,4-dihydro-1H-benzo[b][1,6]naphthyridin-2-yl}acetamide] | > 1000 |
